Test results taken from PubChem BioAssay AID1963844 (Molecular Pharmacology Branch, DTP, NCI, 2024).

Test system: 422866-222-R5-J1-PDC complex spheroid viability
Test: Anticancer human tumor 422866-222-R5-J1-PDC patient-derived pancreatic adenocarcinoma cell line growth inhibition [POLQ]
Settings: for IC50: curve of first compound; for viability, T/C: stronger effect = lower value
Method in brief: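 Three-cell-type spheroids modelling solid tumor plus stroma served as the readout system; POL inhibitors were tested individually and in combination, concentration ranges set by clinical Cmax where known.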

[1] = second compound 0.0316 µM, first compound 0.0316 µM
[2] = second compound 0.0316 µM, first compound 0.1 µM
[3] = second compound 0.0316 µM, first compound 0.316 µM
[4] = second compound 0.0316 µM, first compound 1 µM
[5] = second compound 0.0316 µM, first compound 3.16 µM
[6] = second compound 0.0316 µM, first compound 10 µM
[7] = second compound 0.1 µM, first compound 0.0316 µM
[8] = second compound 0.1 µM, first compound 0.1 µM
[9] = second compound 0.1 µM, first compound 0.316 µM
[10] = second compound 0.1 µM, first compound 1 µM
[11] = second compound 0.1 µM, first compound 3.16 µM
[12] = second compound 0.1 µM, first compound 10 µM
[13] = second compound 0.316 µM, first compound 0.0316 µM
[14] = second compound 0.316 µM, first compound 0.1 µM
[15] = second compound 0.316 µM, first compound 0.316 µM
[16] = second compound 0.316 µM, first compound 1 µM
[17] = second compound 0.316 µM, first compound 3.16 µM
[18] = second compound 0.316 µM, first compound 10 µM
[19] = second compound 1 µM, first compound 0.0316 µM
[20] = second compound 1 µM, first compound 0.1 µM
[21] = second compound 1 µM, first compound 0.316 µM
[22] = second compound 1 µM, first compound 1 µM
[23] = second compound 1 µM, first compound 3.16 µM
[24] = second compound 1 µM, first compound 10 µM
[25] = second compound 3.16 µM, first compound 0.0316 µM
[26] = second compound 3.16 µM, first compound 0.1 µM
[27] = second compound 3.16 µM, first compound 0.316 µM
[28] = second compound 3.16 µM, first compound 1 µM
[29] = second compound 3.16 µM, first compound 3.16 µM
[30] = second compound 3.16 µM, first compound 10 µM
[31] = second compound 10 µM, first compound 0.0316 µM
[32] = second compound 10 µM, first compound 0.1 µM
[33] = second compound 10 µM, first compound 0.316 µM
[34] = second compound 10 µM, first compound 1 µM
[35] = second compound 10 µM, first compound 3.16 µM
[36] = second compound 10 µM, first compound 10 µM
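Further: spheroids exposed to compounds for one week before readout.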
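Wherever viability, T/C is given: percent of DMSO vehicle wells luminescence so 100% = untreated viability.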

SMILES: Nc1ccn(C2OC(CO)C(O)C2(F)F)c(=O)n1 (centres undefined) + Cc1cccc(N(C)C(=O)C2C(O)CCN2c2nc(C)cc(C(F)(F)F)c2C#N)c1
- IC50 (second compound 0.0316 µM): 98.9 nM
- IC50 (second compound 0.1 µM): 76.6 nM
- IC50 (second compound 0.316 µM): 82.4 nM
- IC50 (second compound 1 µM): 119 nM
- IC50 (second compound 3.16 µM): 154 nM
- IC50 (second compound 10 µM): 120 nM
- viability, T/C [1]: 77.9%
- viability, T/C [2]: 50.4%
- viability, T/C [3]: 40.4%
- viability, T/C [4]: 36.1%
- viability, T/C [5]: 36.1%
- viability, T/C [6]: 42.9%
- viability, T/C [7]: 68.8%
- viability, T/C [8]: 43.2%
- viability, T/C [9]: 40.5%
- viability, T/C [10]: 38.6%
- viability, T/C [11]: 35.5%
- viability, T/C [12]: 35.4%
- viability, T/C [13]: 69%
- viability, T/C [14]: 45.3%
- viability, T/C [15]: 40.3%
- viability, T/C [16]: 38.1%
- viability, T/C [17]: 35%
- viability, T/C [18]: 34.8%
- viability, T/C [19]: 68.7%
- viability, T/C [20]: 51.6%
- viability, T/C [21]: 41.4%
- viability, T/C [22]: 37.3%
- viability, T/C [23]: 38.6%
- viability, T/C [24]: 40.2%
- viability, T/C [25]: 83.7%
- viability, T/C [26]: 54.2%
- viability, T/C [27]: 41.9%
- viability, T/C [28]: 43.2%
- viability, T/C [29]: 37.8%
- viability, T/C [30]: 38%
- viability, T/C [31]: 68%
- viability, T/C [32]: 51.9%
- viability, T/C [33]: 45.2%
- viability, T/C [34]: 39.9%
- viability, T/C [35]: 38.9%
- viability, T/C [36]: 48.5%

SMILES: O=C(c1cc(Cc2n[nH]c(=O)c3ccccc23)ccc1F)N1CCN(C(=O)C2CC2)CC1 + Cc1cccc(N(C)C(=O)C2C(O)CCN2c2nc(C)cc(C(F)(F)F)c2C#N)c1
- IC50 (second compound 0.0316 µM): > 10000 nM
- IC50 (second compound 0.1 µM): > 10000 nM
- IC50 (second compound 0.316 µM): > 10000 nM
- IC50 (second compound 1 µM): > 10000 nM
- IC50 (second compound 3.16 µM): > 10000 nM
- IC50 (second compound 10 µM): > 10000 nM
- viability, T/C [1]: 87.5%
- viability, T/C [2]: 103%
- viability, T/C [3]: 89.9%
- viability, T/C [4]: 92.9%
- viability, T/C [5]: 89.7%
- viability, T/C [6]: 68.2%
- viability, T/C [7]: 95.3%
- viability, T/C [8]: 104%
- viability, T/C [9]: 99%
- viability, T/C [10]: 87.4%
- viability, T/C [11]: 87.5%
- viability, T/C [12]: 81.7%
- viability, T/C [13]: 117%
- viability, T/C [14]: 95.9%
- viability, T/C [15]: 107%
- viability, T/C [16]: 97.6%
- viability, T/C [17]: 97.5%
- viability, T/C [18]: 67.3%
- viability, T/C [19]: 96.2%
- viability, T/C [20]: 94.4%
- viability, T/C [21]: 86%
- viability, T/C [22]: 90.5%
- viability, T/C [23]: 82.2%
- viability, T/C [24]: 68%
- viability, T/C [25]: 87.3%
- viability, T/C [26]: 104%
- viability, T/C [27]: 104%
- viability, T/C [28]: 107%
- viability, T/C [29]: 86.1%
- viability, T/C [30]: 68%
- viability, T/C [31]: 104%
- viability, T/C [32]: 107%
- viability, T/C [33]: 97.7%
- viability, T/C [34]: 89.8%
- viability, T/C [35]: 80.3%
- viability, T/C [36]: 76.4%
